Marks after values point to notes of the source that are not given here.
Experiments:
in vivo = test: in vivo; parameters: species or system CBi/L and CBi+ mice; details: mouse, po, 15 mg/kg
Method: Separately, 2.6 g of gelatin powder was dissolved in 10 mL of hot water (60 °C), and 100 μL of this solution was added to each tube before solidification. The mixture was then sonicated in a 60 °C water bath, and 40 mg of powdered commercial chow was added to enhance palatability and ensure complete ingestion. This procedure was developed in our lab and was published in Codina et al..
Following the procedures described by Codina et al., three to four animals per formulation were anesthetized after the drug administration with an intraperitoneal injection of ketamine/xylazine 10:1, 5 min before blood collection. Whole blood (approximately 1.5 mL) samples were taken by cardiac puncture at 0.3, 0.6, 1, 1.2, 2, 2.5, 3, 4, 5, 7, and 24 h post-treatment. Blood was collected into heparinized vials and centrifuged at 9000 rpm for 15 min to obtain plasma, which was transferred to a plastic tube and stored at −20 °C until HPLC analysis.
Briefly, each plasma sample (200 μL) was deproteinized by adding methanol (1 mL), frozen for 30 min at −20 °C, and centrifuged at 15,000 rpm at 4 °C for 12 min. Then, the supernatant was evaporated under vacuum, and the dried samples were stored frozen until analyzed. Samples were reconstituted in 100 μL of the mobile phase and filtered through 0.2 μm polyvinylidene fluoride (PVDF) syringe filters (Agilent, Santa Clara, CA, USA). The mobile phase consisted of 0.05 M of monobasic potassium phosphate buffer and methanol (40:60, v/v). […] Briefly, each plasma sample (200 μL) was treated to eliminate proteins by adding methanol (1 mL), frozen for 30 min at −20 °C, and centrifuged at 15,000 rpm at 4 °C for 12 min. Then, the supernatant was evaporated under a vacuum, and the dried samples were frozen until analyzed. Samples of 25 μL were injected, and the analytes were eluted (flow 1.2 mL/min) from a column Zorbax Eclipse C-18 (150 × 4.6 mm; 5 μm). The absorbance was measured at a wavelength of 247 nm. The analyte retention time was 3.8 ± 0.2 min.
According to regulatory guidelines, the Lower Limit of Quantification (LLOQ) is defined as the lowest concentration of an analyte in a biological matrix that can be quantitatively determined with acceptable precision and accuracy. […] The LLOQ was determined based on the standard deviation of the response at the lowest concentration point, measured in triplicate, and was evaluated for both precision (% CV) and accuracy criteria. […] Consequently, only data up to 7 h were considered for pharmacokinetic analysis.
AUCs were calculated using the trapezoidal rule. Pharmacokinetic parameters were expressed as mean ± SEM. In this section, we report data as mean ± SEM to provide a measure of the central tendency along with the precision of the estimated mean. The standard error of the mean (SEM) is particularly useful for highlighting the reliability of the sample mean as an estimate of the true population mean, which is relevant when evaluating pharmacokinetic (PK) parameters under controlled conditions.

[1] = tested on: Trichinella spiralis encysted muscle larvae; test: In vivo therapeutic efficacy in the parenteral stage of T. spiralis infection; parameters: species or system CBi/L and CBi+ mice; details: for Dead larvae percentage: 15 mg MBZ/kg/day oral days 27, 28, 29 p-i, methylene blue, median (range)
Method: Since CBi/L and CBi+ mice show significant body weight differences, as already stated, adult animals of both sexes were infected orally with an equivalent dose of 2 T. spiralis L1 larvae per g of the host’s body weight. Each animal was weighed before infection, 24–48 h before treatment, and before sacrifice. During the infection course, the general health of each mouse (overall physical condition and behavior) was monitored three times a week.
Six mice per line and sex were randomly assigned to the non-treated control (C) or treated groups (MBZ, NP, or Comp). Seven days after the last dose, mice were sacrificed to quantify encysted muscle larvae in the tongue. The tongue was excised, weighed, and digested overnight at 37 °C in a pepsin–HCl solution. Digestion was interrupted by adding saline, and the larvae were rinsed several times with saline to remove debris. After low-speed centrifugation (250–300 g, 5 min), the supernatant was carefully removed, and the pellet containing larvae was resuspended in 2 mL of saline. Larvae were counted under an optical microscope at 40× magnification using an acrylic plate. Each formulation’s anthelmintic efficacy was assessed by its effect on the larval muscle load (relative larval load: rLL, number of L1 larvae per g fresh tissue). Also, the effect of the formulations on the encysted L1 larvae viability (dead larvae percentage: proportion of dead muscle larvae/total muscle larvae recovered from each animal) was analyzed using the methylene blue supravital staining technique, as already described.

T. spiralis female worms = test: In vitro parasitic assay on T. spiralis female worms; parameters: species or system Trichinella spiralis
Method: CBi mice were orally infected with 10 L1 T. spiralis larvae per gram of body weight and sacrificed on day 6 post-infection (intestinal phase) as described previously. After euthanasia, the small intestine was excised, segmented into equal lengths, and placed in Petri dishes containing 8–12 mL of incubation medium (0.85% NaCl with 250 μg/mL gentamicin). Each segment was opened longitudinally, gently agitated in the medium, and incubated for 4 h at 37 °C in 5% CO2. Following incubation, intestinal pieces were rinsed with medium and discarded. The medium containing released parasites was collected, centrifuged at a low speed, and the pellet was resuspended in 2–3 mL of RPMI 1640 supplemented with 250 μg/mL of gentamicin and 10% fetal bovine serum. Female worms were then isolated under sterile conditions for further assays.
They were stirred at room temperature for 24 h and then filtered through sterile ethyl cellulose 0.2 μm pore filters (Minisart®, Sartorius Stedim Biotech, Göttingen, Germany).
The entire procedure was conducted under sterile conditions as described by Priotti et al.. Female T. spiralis worms obtained as above were incubated overnight in RPMI 1640 supplemented with 250 μg/mL of gentamicin and 10% fetal bovine serum at 37 °C in 5% CO2. […] The MBZ solution served as the positive control, and the culture medium with the solvent served as the negative control. Worms were incubated at 37 °C in a humidified 5% CO2 atmosphere for 30 h and observed under an inverted microscope at 2, 4, 7, 24, and 30 h. Viability was assessed at each time point by motility and morphology to classify worms as live or dead. The number and motility of newborn larvae were also recorded. Median worm survival was analyzed using survival curves. Experiments were performed in duplicate, with data corrected against the negative control.
Survival curves were calculated using Kaplan and Meier’s product limit method (GraphPad Prism® 9.5; GraphPad Software, Inc., San Diego, CA, USA). The significance of the difference among survival curves was determined with the log-rank test.

[2] = background statement, no reference given; cited from earlier work
[3] = Particle size determination (SEM image analysis / Nano Particle Analyzer); assay type: physicochemical
Method: The particle size of the NP and inclusion complexes was determined by imaging using scanning electron microscopy (Leitz AMR 1600 T [Amray, Bedford, MA, USA]), with an acceleration potential of 20 kV. Samples were sputter-coated with a gold layer to make them conductive. Then, to determine the particle size, scanning electron microscopy images were analyzed using the ImageJ 1x software, a Java-based graphic design program dedicated to image analysis, to estimate size. The particle size of nano-formulations was determined by using a Nano Particle Analyzer Horiba SZ-100 (Kyoto, Japan). Samples were diluted (1:30) in filtered distilled water before measuring.

[4] = tested on: Trichinella spiralis encysted muscle larvae; test: Increasing doses of pure MBZ, therapeutic efficacy in T. spiralis-infected CBi+ mice; assay type: in vivo; details: CBi+ males and females, 30 or 45 mg of MBZ/kg, vs control mice or 15 mg of MBZ/kg
Method: As in the experiments described in Section 2.10.2, the pure drug was administered in the parenteral stage of infection on days 27, 28, and 29 p-i. Seven days after the last dose, mice were sacrificed, and the number and viability of the tongue’s encysted muscle larvae were determined to evaluate anthelmintic efficacy.

For `COC(=O)Nc1nc2ccc(C(=O)c3ccccc3)cc2[nH]1` [MBZ, Mebendazole], the AUC(0-t) (in vivo; female, CBi+) was 600 ± 80 ng·h/mL, the Cmax (in vivo; female, CBi+) was 200 ± 20 ng/mL and the Tmax (in vivo; female, CBi+) was 39.6 min. The AUC(0-t) (in vivo; female, CBi/L) was 3900 ± 630 ng·h/mL, the Cmax (in vivo; female, CBi/L) was 1300 ± 260 ng/mL and the Tmax (in vivo; female, CBi/L) was 39.6 min. The AUC(0-t) (in vivo; male, CBi+) was 400 ± 200 ng·h/mL, the Cmax (in vivo; male, CBi+) was 300 ± 110 ng/mL and the Tmax (in vivo; male, CBi+) was 39.6 min. It also gave an AUC(0-t) (in vivo; male, CBi/L) of 2700 ± 820 ng·h/mL, a Cmax (in vivo; male, CBi/L) of 1300 ± 310 ng/mL and a Tmax (in vivo; male, CBi/L) of 39.6 min. The Dead larvae percentage ([1]; CBi+ female) was 5 (5–11) ^a %, the Dead larvae percentage ([1]; CBi+ male) was 11 (7–75) ^a % and the Dead larvae percentage ([1]; CBi/L female) was 15 (6–25) ^b %. For the same compound, the Dead larvae percentage ([1]; CBi/L male) was 27 (7–75) ^b %, the “Number of muscle larvae recovered compared to control animals” value ([1]; pure MBZ 15 mg/kg on days 27, 28, and 29 p-i) was “did not reduce the number of muscle larvae recovered” and the “Survival Proportion After 30 h” value (T. spiralis female worms; T. spiralis females, 30 h incubation in RPMI 1640) was 79.3%. The “Median Survival” value (T. spiralis female worms; T. spiralis females, 30 h incubation in RPMI 1640, Kaplan–Meier) was “Undefined”, the “Effect on mobility of T. spiralis newborn larvae” value (T. spiralis female worms; larvae released by females exposed to the antiparasitic solutions, 30 h) was “Neither MBZ nor the formulations affected the mobility” and the Oral bioavailability [2] was “approximately 20%”. The “Particle Size (mean diameter)” value [3] was 10.4 ± 6.9 µm and the “Decrease in muscle rLL” value [4] was 40%.
